The values that follow come from PMC4481117 (Molecular Pain, 2015).

The subject of one assay is k-opioid receptors. More on the design: method as in PMID 10973443, PMID 16364815, PMID 22424981. Particulars: cited from earlier work.
Another assay concerns U937 monocytic cells. Put plainly: Chemotaxis migration assay of U937 cells to Dyn A agarose gel. Type of assay: cell-based, human. The note with it: 10 μM Dyn A in agarose. The method, then: Fig. 7 Chemotactic response of U937 cells to Dyn A. a, schematic representation of the experimental format. U937 cells (5x10^4) were placed in the center of the coverslip between two agar gels, one containing Dyn A and control gel without Dyn A. After 2 h at 37 °C, a series of photographs was taken in the direction of migration at 1-mm intervals to count the number of migrating cells. b , representative images after 2 h of migration show the cells within the starting point (marked with a cross; right panels) and at the border of the Dyn A-containing agar drop (left panels). […] Two bottom panels show the experimental condition with no Dyn A gradient. c, quantification of U937 cells migrated from the initial point after 2 h based on the results shown in A (right panel). Migration of control untreated U937 cells that completely migrated from the initial point of cell placement was assigned a value of 100 %. In contrast, there was no cell migration without a Dyn A gradient (0 %). […] A representative experiment is shown. d, distribution of U937 cells between two gels: Dyn A-containing (on the left) and without Dyn A (on the right). “0” on abscissa corresponds to the initial point where cells were loaded and the numbers show the distance that cells migrated in both directions from the starting point. All cells in each of 10 consecutive fields towards the Dyn A-containing and empty gels were counted and plotted as a distance from the starting point
Chemotaxis assays using U937 monocytic cells were performed on 22 × 22 mm cover slips. 1 % agarose (Life Technologies, Carlsbad, CA) was dissolved in HBSS by heating. After cooling, the agarose solution was mixed with Dyn A to obtain a final concentration of 10 μM. A 10 μl drop of warm agarose solution containing Dyn A was placed at one corner of the cover glass at ~1.5 mm from the edge. A control agarose drop was placed diagonally at the opposite corner of the cover glass. Agarose was allowed to solidify for 5 min, and the cover glasses were placed into wells of the 6-well plate filled with 5 ml of RPMI 1640 + 10 % FBS. A 10-μl aliquot of U937 cells (5x10^4) was loaded in the center of the cover glass and the plate was incubated for 2 h at 37 °C in a humidified atmosphere containing 5 % CO2. In this experimental format, the cells sediment approximately 5 min after loading, forming an ~4 mm circle, and begin to migrate towards the Dyn A-containing agarose drop. […] The photographs were taken at 1-mm intervals in the direction of cell migration towards the dynorphin-containing or control agarose drops without dynorphin A. The number of cells at the starting point and in each of 10 consecutive fields towards the dynorphin-containing and empty gels were counted and plotted as a distance from the starting point.

Assay [1] relates to Mac-1 (Mac-1-HEK293 cells). Put plainly: Inhibition of adhesion of Mac-1-HEK293 cells to fibrinogen by soluble peptides. Type of assay: cell-based, Human. The note with it: soluble peptide 50 μM, 10 min at 22 °C; 2.5 μg/mL fibrinogen coating, 30 min at 37 °C; mean ± S.E., three experiments. The method, then: Fig. 4 Effect of soluble Dyn A on Mac-1-mediated cell adhesion to fibrinogen. a (left ordinate), calcein-labeled Mac-1-HEK293 cells were preincubated with different concentrations of dynorphin A (black bar), dynorphin B (open bar) or control peptide (gray bar) for […] at 22 °C and added to the wells of microtiter plates coated with 2.5 μg/mL fibrinogen. Cells were allowed to adhere for 30 minutes at 37 °C before removing nonadherent cells. […] Data are expressed as a percentage of total cell fluorescence
Adhesion assays were performed essentially as described previously. […] Cells were labeled with 10 μM calcein for 30 min at 37 °C and washed twice with Hanks’ Balanced salt solution (HBSS) containing 0.1 % BSA. Aliquots (100 μl) of labeled cells (5x10^5/ml) were added to each well and allowed to adhere for 30 min at 37 °C. The non-adherent cells were removed by two washes with PBS. Fluorescence was measured in a CytoFluorII fluorescence plate reader (Perceptive Biosystems, Framingham, MA). In inhibition experiments, cells were mixed with different concentrations of peptides, NIF or mAbs for 20 min at 22 °C before they were added to the wells coated with adhesive substrates. […] After aspirating the solution, labeled cells were added and cell adhesion was analyzed as above.

The target of assay [2] is T1, Mac-1 (Mac-1-expressing HEK293 cells) (Homo sapiens, UniProt P05107+P11215).
T1 construct: expressed in transfected cells
The experiment in a line: Adhesion of Mac-1-HEK293 cells to immobilized peptide. In kind it is cell-based. The note with it: 30 min at 37 °C. As for the experimental part:
For testing the role of glucosaminoglycans in cell adhesion, dynorphin A-coated wells were preincubated with 100 μl of 10 μg/ml of chondroitin sulfate A, chondroitin sulfate B and heparin. Aliquots (5x10^4cells) were added to the wells coated with 2 μM dynorphin A and adhesion was performed as described in A. Adhesion in the absence of Mac-1 inhibitors and glucosaminoglycans was assigned a value of 100 %. The data shown are the means ± S.E. from four separate experiments each with triplicate measurements. d , microtiter plate wells were coated with different concentrations of dynorphin B and adhesion of Mac-1-expressing and wild-type HEK293 cells was determined as described in A. The data shown are means of triplicate determinations, and error bars represent S.E. The figure is representative of 5 experiments. e. calcein-labeled Mac-1-HEK293 cells were preincubated without or with 10 μg/ml of mAb 44a and heparin, added to the wells coated with 20 μM of dynorphin B and adhesion was performed as described in A. Adhesion in the absence of inhibitors was assigned a value of 100 %.
Adhesion assays were performed essentially as described previously. […] Cells were labeled with 10 μM calcein for 30 min at 37 °C and washed twice with Hanks’ Balanced salt solution (HBSS) containing 0.1 % BSA. Aliquots (100 μl) of labeled cells (5x10^5/ml) were added to each well and allowed to adhere for 30 min at 37 °C. The non-adherent cells were removed by two washes with PBS. Fluorescence was measured in a CytoFluorII fluorescence plate reader (Perceptive Biosystems, Framingham, MA). In inhibition experiments, cells were mixed with different concentrations of peptides, NIF or mAbs for 20 min at 22 °C before they were added to the wells coated with adhesive substrates. In a separate set of experiments, after coating plates with dynorphins and post-coating with 1 % PVP, plates were incubated with 100 μl of 10 μg/ml chondroitin sulfate A, chondroitin sulfate B, or heparin for 20 min at 22 °C. After aspirating the solution, labeled cells were added and cell adhesion was analyzed as above.

With `CC[C@H](C)[C@H](NC(=O)[C@H](CCCNC(=N)N)NC(=O)[C@H](CCCNC(=N)N)NC(=O)[C@H](CC(C)C)NC(=O)[C@H](Cc1ccccc1)NC(=O)CNC(=O)CNC(=O)[C@@H](N)Cc1ccc(O)cc1)C(=O)N[C@@H](CCCNC(=N)N)C(=O)N1CCC[C@H]1C(=O)N[C@@H](CCCCN)C(=O)N[C@@H](CC(C)C)C(=O)N[C@@H](CCCCN)C(=O)N[C@@H](Cc1c[nH]c2ccccc12)C(=O)N[C@@H](CC(=O)O)C(=O)N[C@@H](CC(N)=O)C(=O)N[C@@H](CCC(N)=O)C(=O)O` [Dyn A], the κ-opioid receptor binding entry in the assay with k-opioid receptors is recorded as “binds preferentially to the k-opioid receptors”. Moreover, the “Distance travelled by majority of untreated cells towards Dyn A” value with U937 monocytic cells (2 h, no inhibitor) is given as ~ 8 mm. In the assay with U937 monocytic cells (2 h at 37 °C), the “Chemotaxis of U937 cells (in words)” value is reported as “efficiently migrated along the gradient of Dyn A”. In addition, in assay [1], the “Inhibition of adhesion to fibrinogen” value is 67 ± 2%. Further, the “Coating concentration giving saturable adhesion” value in assay [2] (Mac-1-HEK293 cells) is ~ 2 μM. The “Adhesion of Mac-1-HEK293 cells (in words)” value in assay [2] (coated wells, calcein-labeled cells) is “strongly adhered”. In addition, the EC50 in assay [2] (read-out: Coating concentration required to reach 50 % of maximal cell adhesion, Mac-1-HEK293 cells, fluorescence of calcein) is 200 to 500 nM.
